# Experimental data as given in US20120004233A1, “TRICYCLIC COMPOUNDS AS ANTAGONISTS OF PROSTAGLANDIN D2 RECEPTORS” (AMIRA PHARMACEUTICALS, INC, priority 2009, published 2012).
# Read-outs that look alike come from different tables or passages of the source.
# What was measured:
# [1] = target: T1, human DP1 receptor (Homo sapiens, UniProt Q13258); assay: DP1 radioligand membrane binding assay using [3H]BWA868C; conditions: human platelet membranes; read-out: hDP1
# T1 construct: tissue Biological Specialty Corporation; host or cells: human platelets, membrane preparation
# T1 sequence (Q13258 1-359): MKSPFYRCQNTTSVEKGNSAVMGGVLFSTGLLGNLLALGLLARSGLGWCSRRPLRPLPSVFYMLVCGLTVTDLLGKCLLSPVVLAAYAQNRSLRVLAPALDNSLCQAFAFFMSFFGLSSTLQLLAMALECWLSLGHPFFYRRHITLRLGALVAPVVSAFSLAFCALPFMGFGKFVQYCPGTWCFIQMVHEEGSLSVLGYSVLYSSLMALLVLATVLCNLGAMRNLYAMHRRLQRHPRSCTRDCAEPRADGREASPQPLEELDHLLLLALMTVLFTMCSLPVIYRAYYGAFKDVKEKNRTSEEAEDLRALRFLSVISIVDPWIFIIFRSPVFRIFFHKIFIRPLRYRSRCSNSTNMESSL
# Procedure: The ability of a compound to bind to the human DP1 receptor is evaluated via a radioligand membrane binding assay using the DP1 selective synthetic ligand [^3H]BWA868C. Packed human platelets (Biological Specialty Corporation), are resuspended in 6 volumes of Hepes/HBSS buffer (10 mM Hepes, 1 mM DTT in Hanks Balanced Salt Solution (HBSS)), lysed and centrifuged at 75,000×g to pellet the membranes. Membranes are resuspended in Hepes/HBSS buffer to approximately 12 mg protein/ml. Membranes (20 μg protein/well) are incubated in 96-well plates with 2 nM [^3H]BWA868C and test compound in Assay Buffer (50 mM Hepes, 10 mM MnCl2, 1 mM EDTA, plus or minus 0.2% human serum albumin, pH 7.4) for 60 minutes at room temperature. The reactions are terminated by rapid filtration through Whatman GF/C glass fibre filter plates. The filter plates are pre-soaked in 0.33% polethylenimine for 30 minutes at room temperature then washed in Wash Buffer (50 mM Hepes, 0.5 M NaCl pH 7.4) prior to harvesting. […] Scintillant is then added to the plates and the radioactivity retained on the filters is determined on a Packard TopCount (Perkin Elmer). Specific binding is determined as total radioactive binding minus non-specific binding in the presence of 10 μM BW A868C. IC50 values are determined using GraphPad prism analysis of drug titration curves.
# [2] = target: T2, human DP2 receptor (Homo sapiens, UniProt Q9Y5Y4); assay: DP2/CRTH2 radioligand binding assay using [3H]PGD2; conditions: membranes of HEK293 cells expressing recombinant human DP2
# T2 construct: expressed in transfected cells
# T2 sequence (Q9Y5Y4 1-395): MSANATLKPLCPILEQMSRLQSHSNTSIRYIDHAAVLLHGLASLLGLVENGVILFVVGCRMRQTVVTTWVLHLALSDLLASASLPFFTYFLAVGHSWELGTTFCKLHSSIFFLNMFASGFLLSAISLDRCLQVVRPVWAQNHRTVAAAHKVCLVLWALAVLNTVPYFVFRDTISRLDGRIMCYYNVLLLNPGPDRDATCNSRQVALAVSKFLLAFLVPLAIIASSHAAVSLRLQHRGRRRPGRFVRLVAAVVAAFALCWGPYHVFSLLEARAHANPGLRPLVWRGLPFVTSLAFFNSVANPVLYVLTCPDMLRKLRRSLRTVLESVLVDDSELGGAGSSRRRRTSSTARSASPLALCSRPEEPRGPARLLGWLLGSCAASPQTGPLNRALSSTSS
# Procedure: The ability of a compound to bind to the human DP2 receptor is assessed via a radioligand binding assay using [^3H]PGD2. HEK293 cells stably expressing recombinant human DP2 are resuspended in 10 mM Hepes, 7.4 containing 1 mM DTT, lysed and centrifuged at 75,000×g to pellet the membranes. The membranes are resuspended in 10 mM Hepes, 7.4 containing 1 mM DTT and 10% glycerol to approximately 5 mg protein/ml. Membranes (2-10 μg protein/well) are incubated in 96-well plates with 1 nM [^3H]PGD2 and test compound in Assay Buffer (50 mM Hepes, 10 mM MnCl2, 1 mM EDTA, plus or minus 0.2% human serum albumin, pH 7.4) for 60 minutes at room temperature. The reactions are terminated by rapid filtration through Whatman GF/C glass fibre filter plates. The filter plates were pre-soaked in 0.33% polythylenimine for 30 minutes at room temperature then washed in Wash Buffer (50 mM Hepes, 0.5 M NaCl pH 7.4) prior to harvesting. After harvesting, the filter plates are washed 3 times with 1 ml cold Wash Buffer then dried. Scintillant is then added to the plates and the radioactivity retained on the filters is determined on a Packard TopCount (Perkin Elmer). Specific binding is determined as total radioactive binding minus non-specific binding in the presence of 10 μM PGD2. IC50s were determined using GraphPad prism analysis of drug titration curves.
# [3] = plus 0.2% human serum albumin, read-out: hDP2 μM (+HSA)
# [4] = without human serum albumin, read-out: hDP2
smiles,measurement,setting,value
"CN(C1CCc2c(CC(=O)O)c3ccccn3c2C1)S(=O)(=O)c1ccc(F)cc1 (stereo not drawn) [Compound 1-1, {3-[(4-Fluoro-benzenesulfonyl)-methyl-amino]-1,2,3,4-tetrahydro-pyrido[1,2-a]indol-10-yl}-acetic acid]",IC50,[1],> 1000 nM
same,IC50,[2]; [3],< 300 nM
same,IC50,[2]; [4],< 300 nM
"CN(C1CCc2c(c3ccccn3c2CC(=O)O)C1)S(=O)(=O)c1ccc(F)cc1 (stereo not drawn) [Compound 2-1, {9-[(4-Fluoro-benzenesulfonyl)-methyl-amino]-7,8,9,10-tetrahydro-pyrido[2,1-a]isoindol-6-yl}-acetic acid]",IC50,[1],> 1000 nM
same,IC50,[2]; [3],< 300 nM
same,IC50,[2]; [4],< 300 nM
